Assay results: patent US20130130317A1, “METHOD FOR PRODUCING SUBSTANCE” (KYOWA HAKKO KIRIN CO., LTD, priority 2010, published 2013)
In brackets after ≈: the same amount, converted by molar mass. Peptide text beside a SMILES is read from it.

Experiments:
[1] = H2O, 20° C.; cited from earlier work
[2] = Precipitation in media for cell culture on storage; format: physicochemical; details: 5.0 mmol/L in medium, stored at 4° C., after 3 days; for precipitation in the medium for cell culture: 20° C. or room temperature
Procedure: The following media for cell culture were prepared to compare differences in precipitation therebetween.
In 700 mL of water, 31.6 g of AGT Efficient Feed A (manufactured by Invitrogen, Catalog No. AG090231P7), 0.50 mL of polyamine solution (manufactured by Invitrogen, Catalog No. AG090232P8), 27.2 g of AGT Efficient Feed B (manufactured by Invitrogen, Catalog No. AG090230P7), 30.0 g of Hydrolysate (manufactured by DMV, Catalog No. P42474), 70.0 g of glucose (manufactured by Wako Pure Chemical Industries, Catalog No. 041-00595), and 5.0 g of L-(+)-glutamine (manufactured by Wako Pure Chemical Industries, Catalog No. 078-00525) or 7.4 g of L-alanyl-L-glutamine (manufactured by Kyowa Hakko Bio) were mixed.
After stirring for approximately 30 minutes, 7.0 mL of 5 mol/L HCl aqueous solution (manufactured by Wako Pure Chemical Industries, Catalog No. 081-05435) was added, followed by further stirring for approximately 20 minutes and pH was adjusted to 6.5. Thereafter, 50 mL of an alkaline solution containing 0.5 mol/L of NaOH (manufactured by Junsei Chemical, Catalog No. 39155-0301), 100 mmol/L of L-tyrosine disodium salt (manufactured by Sigma, Catalog No. T1145-100G), and 100 mmol/L of L-cystine dihydrochloride (manufactured by Wako Pure Chemical Industries, Catalog No. 034-05322) was added to the prepared aqueous solution of pH 6.5.
A volume of the aqueous solution was adjusted to 1 L with water, followed by stirring for approximately 20 minutes so as to prepare a medium for cell culture. In the medium for cell culture, L-tyrosine disodium salt and L-cystine dihydrochloride were substituted with the same concentration (5.0 mmol/L) of L-alanyl-L-tyrosine (manufactured by Kyowa Hakko Bio) and bis-L-alanyl-L-cysteine (manufactured by Kyowa Hakko Bio) to prepare media for cell culture, respectively. The prepared media for cell culture were stored under three conditions of at 4° C. (refrigerator, manufactured by Hoshizaki), 20° C. (e-Cooling Bucket, manufactured by Taitec), or room temperature.

[3] = cited from earlier work
[4] = tested on: antibody X-expressing CHO cells; assay: Fed-batch culture of CHO cells: number of living cells and survival rate; format: cell-based, Chinese hamster; details: 13 days of culture
Procedure: The following feed media for cell culture were prepared, and fed-batch culture was carried out using CHO cells for comparison.
(§1) The feed medium was composed of 31.6 g/L of AGT Efficient Feed A (manufactured by Invitrogen, Catalog No. AG090231P7), 0.50 ml/L of polyamine solution (manufactured by Invitrogen, Catalog No. AG090232P8), 27.2 g/L of AGT Efficient Feed B (manufactured by Invitrogen, Catalog No. AG090230P7), 5.0 g/L of L-(+)-glutamine (manufactured by Wako Pure Chemical Industries, Catalog No. 078-00525), 30.0 g/L of hydrolysates (manufactured by DMV, Catalog No. P42474), 70.0 g/L of glucose (manufactured by Wako Pure Chemical Industries, Catalog No. 041-00595), 5.0 mmol/L of L-alanyl-L-tyrosine (Kyowa Hakko Bio), and 5.0 mmol/L, 10 mmol/L or 16 mmol/L of bis-L-alanyl-L-cysteine (manufactured by Kyowa Hakko Bio), and prepared in the same manner as in Example 1.
(§2) In the culture using antibody X-expressing CHO cells, 4.0 mmol/L of glutamine (manufactured by Invitrogen, Catalog No. 25030)-containing EX-CELL325 (manufactured by SAFC, Catalog No. 14340C-1000mL) was used as a main culture medium. The feed medium was added to perform fed-batch culture.

[5] = tested on: antibody X-expressing CHO cells; assay: Antibody titer in fed-batch culture of CHO cells; format: cell-based, Chinese hamster; details: 13 days of culture
Procedure: as §1, §2
In order to examine antibody production, antibody titer was measured at 13 days of culture in the fed-batch culture of CHO cells having an ability to produce the antibody of Example 2. In the feed medium, the […] 0.75 g/L at 5.0 mmol/L, 0.79 g/L at 10 mmol/L, and 0.78 g/L at 16 mmol/L.

N[C@@H](CSSC[C@H](N)C(=O)O)C(=O)O [cystine]
solubility [1]: 100 µg/mL (≈ 416 µM)

L-tyrosine disodium salt
precipitation in the medium for cell culture [2]: precipitations were observed
precipitation in the medium, low temperature compared with other storage conditions [2]: more precipitation was observed

Cl.N[C@@H](CS)C(=O)O [cysteine hydrochloride]
stability in an aqueous solution [3]: low stability

C[C@H](N)C(=O)N(C(=O)[C@H](C)N)[C@@H](CS)C(=O)O [bis-L-alanyl-L-cysteine]
Number of living cells ([4]; 5 mmol/L in feed medium): 28.6 10^5 cells/mL
Survival rate ([4]; 5 mmol/L in feed medium): 55.0%
Number of living cells ([4]; 10 mmol/L in feed medium): 44.1 10^5 cells/mL
Survival rate ([4]; 10 mmol/L in feed medium): 78.7%
Number of living cells ([4]; 16 mmol/L in feed medium): 58.1 10^5 cells/mL
Survival rate ([4]; 16 mmol/L in feed medium): 86.6%
antibody titer ([5]; 5.0 mmol/L in feed medium): 0.75 g/L
antibody titer ([5]; 10 mmol/L in feed medium): 0.79 g/L
antibody titer ([5]; 16 mmol/L in feed medium): 0.78 g/L
precipitation in the medium for cell culture [2]: no precipitation

Cl.Cl.N[C@@H](CSSC[C@H](N)C(=O)O)C(=O)O [L-cystine dihydrochloride]
precipitation in the medium for cell culture [2]: precipitations were observed
precipitation in the medium, low temperature compared with other storage conditions [2]: more precipitation was observed

C[C@H](N)C(=O)N[C@@H](Cc1ccc(O)cc1)C(=O)O [L-alanyl-L-tyrosine] (H-Ala-Tyr-OH)
precipitation in the medium for cell culture [2]: no precipitation
